Results: patent US20210238177A1, “CRYSTALLINE FORMS OF 3-((1R,5S,9r)-9-ETHOXY-3-AZABICYCLO[3.3.1]NONAN-9-YL)-BENZAMIDE AND SALT FORMS THEREOF” (Alkermes, Inc., priority 2020, published 2021)

Experiment: Dynamic Vapor Sorption (DVS) with PXRD of the material after DVS
Assay type: physicochemical
Experimental: DVS analysis was conducted using a TA Instruments TGA Q5000 SA. DVS was run at 25 degrees C. The sample was pre-dried at 25 degrees C. and 0% relative humidity (% RH) until the dm/dt was 0.01% for up to 300 minutes. Adsorption and desorption isotherms were measured by ramping the humidity from 0% RH to 90% RH to 0% RH at 10% RH step intervals with a stability criterion of dm/dt=0.01% or 300 minutes unless otherwise noted. Data analysis was performed using Universal Analysis 2000 Version 4.5 A.

Compound	relative stability of HCl salt solid forms (conclusion based on the DVS experiment)	water (DVS weight gain) (25 degrees C, first cycle, up to 50% RH)	solid form after DVS (PXRD pattern) (after two cycle DVS, 0% RH to 90% RH to 0% RH, 25 degrees C)
CCOC1(c2cccc(C(N)=O)c2)C2CCCC1CNC2.Cl [hydrochloride Form B, 3-((1R,5S,9r-9-ethoxy-3-azabicyclo-[3.3.1]nonan-9-yl)-benzamide hydrochloride]	most stable HCl salt solid form	–	–
CCOC1(c2cccc(C(N)=O)c2)C2CCCC1CNC2.Cl [hydrochloride Form D, 3-((1R,5S,9r-9-ethoxy-3-azabicyclo-[3.3.1]nonan-9-yl)-benzamide hydrochloride]	–	approximately 0.5%	consistent with hydrochloride Form B
